Holding throughout (format): cell-based
Assay [1] has as its system metallothionein. In words: Metallothionein in cultured retinal pigment epithelial cells. The settings on record: 0, 15, 30 or 100 μM, compared with zinc acetate, zinc chloride, zinc sulfate. The method, then:
(§1) The biological efficacy was tested by adding 0, 15, 30 or 100 μM of zinc cysteine to cultured retinal pigment epithelial cells in comparison to zinc salts (zinc acetate, zinc chloride, and zinc sulfate).
(§2) The complex of zinc-cysteine increased the activity of antioxidant enzymes catalase and glutathione peroxidase, and the antioxidant protein metallothionein in cultured retinal pigment epithelial cells more efficiently and potently than zinc acetate, zinc chloride, and zinc sulfate. […] The zinc-cysteine complex may be readily absorbed and distributed inside the cell to provide beneficial needs in regulating the antioxidant economy.

The test system of assay [2] is catalase. In words: Catalase activity in cultured retinal pigment epithelial cells. The settings on record: 0, 15, 30 or 100 μM, compared with zinc acetate, zinc chloride, zinc sulfate. Here is the method: as §1, §2
For assay [3], the system named is RPE cells. Description: Protection of RPE cells from increasing hydrogen peroxide concentrations. The settings on record: compared with the zinc salts (zinc acetate, zinc chloride, zinc sulfate). Here is the method:
as §1, §2

Assay [4] concerns glutathione peroxidase. In words: Glutathione peroxidase activity in cultured retinal pigment epithelial cells. The settings on record: 0, 15, 30 or 100 μM, compared with zinc acetate, zinc chloride, zinc sulfate. The method, then:
as §1, §2

Regarding `N[C@@H](CS)C(=O)O` [cysteine], the antioxidant protein metallothionein entry in assay [1] is reported as “did not have an effect”. Besides, the “activity of antioxidant enzyme catalase” value in assay [2] is “did not have an effect”.
For the compound `NC1C[S][Zn][O]C1=O` (stereo not drawn) [zinc-cysteine, zinc-monocysteine complex], in assay [1], the antioxidant protein metallothionein result was “increased”. Besides, the “activity of antioxidant enzyme catalase” value in assay [2] was “increased”. For the same compound, in assay [3], the “protecting RPE cells from increasing hydrogen peroxide concentrations” value is recorded as “more potent”. The “activity of antioxidant enzyme glutathione peroxidase” value in assay [4] was “increased”.

Source of the values: patent publication US8067627B2, “Zinc-monocysteine complex and method of using zinc-cysteine complexes” (priority 2000, dated 2011).
